In ChEMBL document CHEMBL5523680, “Small molecule modulators of cystic fibrosis transmembrane conductance regulator (CFTR): Structure, classification, and mechanisms” (Eur J Med Chem, 2024):

Legend:
[1] = molecular target: T1, Cystic fibrosis transmembrane conductance regulator (Homo sapiens, UniProt P13569, F508DEL); test: Potentiation of CFTR F508del mutant (unknown origin) expressed in NIH3T3 cells; type: cell-based
[2] = molecular target: T1, Cystic fibrosis transmembrane conductance regulator; test: Corrector activity at […] CFTR F508del mutant (unknown origin) expressed in BHK cells assessed as increase in chloride secretion […]; type: cell-based
[3] = molecular target: T2, Cystic fibrosis transmembrane conductance regulator (Homo sapiens, UniProt P13569, N1303K); test: Potentiation of CFTR N1303K mutant (unknown origin) expressed in FRT cells assessed as increase in CFTR mutant activity; type: cell-based
[4] = molecular target: T1, Cystic fibrosis transmembrane conductance regulator; test: Potentiation of CFTR F508del mutant (unknown origin) in FRT cells assessed as rescue of CFTR mutant incubated for 24 hrs in presence of VX-770; type: cell-based
[5] = molecular target: T1, Cystic fibrosis transmembrane conductance regulator; test: Activation of CFTR F508del mutant (unknown origin)
[6] = molecular target: T2, Cystic fibrosis transmembrane conductance regulator; test: Potentiation of CFTR N1303K mutant (unknown origin) transfected in […] FRT cells in presence of forskolin/VX-770; type: cell-based
[7] = molecular target: Cystic fibrosis transmembrane conductance regulator (Homo sapiens, UniProt P13569, W1282X); test: Potentiation of CFTR W1282X mutant (unknown origin) transfected in […] FRT cells in presence of forskolin/VX-770; type: cell-based
[8] = test system: Cystic fibrosis transmembrane conductance regulator (Homo sapiens), P13569 [G551D]; test: Potentiation of CFTR G551D mutant (unknown origin) expressed in FRT cells assessed as increase in chloride current in presence of VX-770 relative to control; type: cell-based; conditions: filed as activator
[9] = molecular target: Cystic fibrosis transmembrane conductance regulator (Homo sapiens, UniProt P13569, G551D); test: Potentiation of CFTR G551D mutant (unknown origin) expressed in FRT cells; type: cell-based
Cystic fibrosis transmembrane conductance regulator (Homo sapiens, UniProt P13569, G551D), sequence (P13569 whole entry G551D): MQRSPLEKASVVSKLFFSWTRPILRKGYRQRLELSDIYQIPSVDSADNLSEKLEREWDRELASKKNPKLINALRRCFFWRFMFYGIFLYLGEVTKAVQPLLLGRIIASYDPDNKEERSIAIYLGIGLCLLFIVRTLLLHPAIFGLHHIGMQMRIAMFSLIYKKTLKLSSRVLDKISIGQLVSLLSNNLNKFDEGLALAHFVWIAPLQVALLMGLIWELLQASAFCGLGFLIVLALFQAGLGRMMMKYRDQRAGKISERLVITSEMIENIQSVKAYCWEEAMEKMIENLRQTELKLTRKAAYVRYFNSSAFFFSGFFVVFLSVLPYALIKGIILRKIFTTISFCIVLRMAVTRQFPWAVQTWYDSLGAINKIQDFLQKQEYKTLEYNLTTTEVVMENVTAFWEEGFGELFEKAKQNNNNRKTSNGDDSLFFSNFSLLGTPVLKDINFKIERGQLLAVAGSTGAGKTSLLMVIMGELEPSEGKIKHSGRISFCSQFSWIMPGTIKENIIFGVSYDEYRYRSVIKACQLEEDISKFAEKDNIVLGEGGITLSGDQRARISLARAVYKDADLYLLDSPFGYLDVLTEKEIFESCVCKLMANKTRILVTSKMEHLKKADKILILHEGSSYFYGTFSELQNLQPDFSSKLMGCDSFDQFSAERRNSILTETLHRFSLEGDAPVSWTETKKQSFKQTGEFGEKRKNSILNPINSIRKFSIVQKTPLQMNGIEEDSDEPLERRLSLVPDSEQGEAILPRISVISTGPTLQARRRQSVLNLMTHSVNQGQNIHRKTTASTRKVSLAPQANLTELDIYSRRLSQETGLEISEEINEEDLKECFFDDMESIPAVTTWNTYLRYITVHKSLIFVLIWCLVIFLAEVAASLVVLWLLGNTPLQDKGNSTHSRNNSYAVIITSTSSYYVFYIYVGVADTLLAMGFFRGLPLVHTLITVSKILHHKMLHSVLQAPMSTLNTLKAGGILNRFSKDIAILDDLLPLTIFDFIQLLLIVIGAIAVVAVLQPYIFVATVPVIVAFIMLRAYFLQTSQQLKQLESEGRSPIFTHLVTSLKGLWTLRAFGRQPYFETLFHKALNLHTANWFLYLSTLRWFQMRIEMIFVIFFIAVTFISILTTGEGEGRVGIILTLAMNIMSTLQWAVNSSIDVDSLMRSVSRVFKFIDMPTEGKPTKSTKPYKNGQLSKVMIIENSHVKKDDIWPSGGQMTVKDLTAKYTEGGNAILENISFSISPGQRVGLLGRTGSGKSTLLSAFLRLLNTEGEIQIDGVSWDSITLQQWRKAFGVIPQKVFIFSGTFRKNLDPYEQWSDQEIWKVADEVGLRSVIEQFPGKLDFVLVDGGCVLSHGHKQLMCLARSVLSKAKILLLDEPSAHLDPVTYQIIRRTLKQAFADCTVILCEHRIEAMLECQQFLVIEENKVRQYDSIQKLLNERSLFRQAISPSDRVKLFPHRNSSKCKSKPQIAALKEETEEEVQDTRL

T1 sequence (P13569 as listed by the source): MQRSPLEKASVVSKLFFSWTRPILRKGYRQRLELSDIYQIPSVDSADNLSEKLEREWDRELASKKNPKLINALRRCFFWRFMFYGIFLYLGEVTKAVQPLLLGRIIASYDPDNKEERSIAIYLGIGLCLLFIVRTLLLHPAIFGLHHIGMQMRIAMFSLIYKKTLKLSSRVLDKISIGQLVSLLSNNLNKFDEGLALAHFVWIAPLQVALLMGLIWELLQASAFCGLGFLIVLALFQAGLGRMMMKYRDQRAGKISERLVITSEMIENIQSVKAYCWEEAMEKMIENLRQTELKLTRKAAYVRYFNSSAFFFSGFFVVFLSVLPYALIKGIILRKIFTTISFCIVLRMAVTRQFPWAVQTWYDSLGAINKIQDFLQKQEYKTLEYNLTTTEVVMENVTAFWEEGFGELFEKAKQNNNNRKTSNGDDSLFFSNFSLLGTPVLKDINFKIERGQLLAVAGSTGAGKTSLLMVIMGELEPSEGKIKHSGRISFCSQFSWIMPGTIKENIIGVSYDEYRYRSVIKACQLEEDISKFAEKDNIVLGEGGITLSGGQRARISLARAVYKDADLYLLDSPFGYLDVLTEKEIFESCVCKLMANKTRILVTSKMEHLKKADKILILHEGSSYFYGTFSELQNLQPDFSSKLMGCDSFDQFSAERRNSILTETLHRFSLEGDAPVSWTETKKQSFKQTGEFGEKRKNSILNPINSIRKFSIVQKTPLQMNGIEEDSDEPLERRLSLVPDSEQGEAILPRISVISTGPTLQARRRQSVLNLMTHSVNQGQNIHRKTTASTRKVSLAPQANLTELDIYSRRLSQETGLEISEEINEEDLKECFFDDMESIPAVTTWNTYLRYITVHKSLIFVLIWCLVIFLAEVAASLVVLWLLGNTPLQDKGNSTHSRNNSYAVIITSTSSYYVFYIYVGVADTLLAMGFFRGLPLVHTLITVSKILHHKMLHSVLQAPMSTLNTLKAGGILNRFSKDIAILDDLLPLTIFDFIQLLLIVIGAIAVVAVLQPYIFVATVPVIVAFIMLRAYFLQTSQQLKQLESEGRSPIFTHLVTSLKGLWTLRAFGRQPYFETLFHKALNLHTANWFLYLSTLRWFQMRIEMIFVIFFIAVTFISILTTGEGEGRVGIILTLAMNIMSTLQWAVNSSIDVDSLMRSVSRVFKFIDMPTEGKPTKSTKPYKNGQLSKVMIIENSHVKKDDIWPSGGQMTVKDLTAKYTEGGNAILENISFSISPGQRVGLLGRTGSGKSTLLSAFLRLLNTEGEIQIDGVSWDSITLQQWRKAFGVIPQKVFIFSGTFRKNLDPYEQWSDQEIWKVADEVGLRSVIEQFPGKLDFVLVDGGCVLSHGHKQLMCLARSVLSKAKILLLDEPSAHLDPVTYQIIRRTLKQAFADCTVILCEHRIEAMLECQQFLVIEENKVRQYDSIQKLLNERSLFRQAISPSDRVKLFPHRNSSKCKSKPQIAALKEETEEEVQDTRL
T2 sequence (P13569 whole entry N1303K): as the sequence (P13569 whole entry G551D) above, with D551G, N1303K counted along it
Cystic fibrosis transmembrane conductance regulator (Homo sapiens), P13569 [G551D], sequence (P13569 whole entry G551D): as the sequence (P13569 whole entry G551D) above

In the case of `O=C(Nc1ncc(Cc2ccccc2Cl)s1)C(c1ccccc1)c1ccccc1`, the EC50 [1] is reported as 7000 nM and the EC50 [2] is reported as 81 nM.
In the case of `O=c1cc(-c2ccc(O)cc2)oc2cc(O)cc(O)c12` [APIGENIN], the EC50 [3] is reported as 10800 nM.
`Cc1ncccc1CNC(=O)c1ccc2c(c1)CC[C@@H]1C[C@@](O)(CCC(F)(F)F)CC[C@@]21Cc1ccccc1` was tested, and the EC50 [4] was 400 nM.
In the case of `OCc1cccc(N2C=CN(c3ccccc3)N2)c1`, the EC50 [5] is reported as 1900 nM.
`O=P(O)(CCP(=O)(O)c1ccccc1)c1ccccc1` was tested, and the EC50 [5] was 1000 nM.
`COc1ccc(S(=O)(=O)N2CCN(C(C)c3nc(OC4CCCCC4)c4ccccc4n3)CC2)cc1` (stereo unspecified) gave an EC50 [1] of 3300 nM.
With `OC(C1=CNNN1c1ccc(Br)cc1)c1ccccc1Br` (stereo unspecified) the EC50 [5] was 4200 nM.
In the case of `Cc1ccc(S(=O)(=O)Nc2nc3ccccc3nc2C2CCOCC2)cc1`, the EC50 [5] is reported as 930 nM.
With `CCCCN1CC(S(=O)(=O)Nc2ccc(CC)cc2)c2cccnc21` (stereo unspecified) the EC50 [6] was 1900 nM, the EC50 [7] was 1000 nM and the Activity [8] was 65%.
For `OC(C1=NC(c2ccc(Br)cc2)NN1)c1ccc(Br)cc1` (stereo unspecified), the EC50 [5] was 2700 nM.
`CC(C)(CO)c1cc2cc(NC(=O)C3(c4ccc5c(c4)OC(F)(F)O5)CC3)c(F)cc2n1C[C@@H](O)CO` [TEZACAFTOR] showed an EC50 [1] of 1100 nM.
`OC(C1=NC(c2ccc(Br)cc2)NN1)c1ccccc1Br` (stereo unspecified) was tested, and the EC50 [5] was 3000 nM.
`O=C(Nc1ccc2cc[nH]c2c1)c1c[nH]c2ccccc2c1=O` gave an EC50 [9] of 100 nM.
